The results in this text go back to US6864068B2, “Antifungal proteins” (Syngenta Limited, priority 1995, dated 2005).

This series has as its system F culmorum. Nature of the series: Specific antifungal activity of Rs-AFP2 isoforms in SMF− and SMF+ media. The format is cell-based. Also noted: IC50 SMF− / IC50 SMF+: unit not given here. The note with it: for RELATIVE SPECIFIC ACTIVITY (%) IN MEDIUM SMF+ / RELATIVE SPECIFIC ACTIVITY (%) IN MEDIUM SMF−: 1/IC50 of mutant divided by that of yRs-AFP2 x 100, 48 hour incubation, preliminary tests; for RELATIVE SPECIFIC ACTIVITY (%) IN MEDIUM SMF+: SMF with 1 mM CaCl2 and 50 mM KCl; for RELATIVE SPECIFIC ACTIVITY (%) IN MEDIUM SMF−: low ionic strength medium; for IC50 SMF+ / IC50 SMF−: 72 hours growth, triplicate; for IC50 SMF+: high salt medium (1 mM CaCl2, 50 mM KCl); for IC50 SMF− / effect of substitution on antifungal activity in SMF−, in words: low salt medium; for effect of substitution on antifungal activity in SMF+, in words / effect of substitution on antifungal activity in SMF−, in words: Table 2 tests; for effect of substitution on antifungal activity in SMF+, in words: high salt medium; for relative specific antifungal activity (1/IC50), FIG. 6, in words: medium SMF+, Rs-AFP2 set at 100. The method, then: For each isoform, two independent purifications were carried out and the antifungal activity was determined in duplicate using F culmorum as a test fungus in two different media: a low ionic strength medium called SMF-(Terras et al, 1992, J Biol Chem, 267:15301-15309) and the same medium supplemented with 1 mM CaCl2 and 50 mM KCl called SMF+. The presence of salts in the test medium, especially salts with divalent cations, reduces the specific activity of Rs-AFP2. Seed-purified as well as yeast-expressed wild type Rs-AFP2 served as a control in the assays.
The relative specific activity is expressed as the specific activity of the mutant divided by the specific activity of yRs-AFP2 and multiplied by 100. […] The specific activity was measured in medium SMF−and SMF+.
Deviations are given as standard error of the mean (sem) based on the triplicate experiments. In SMF−, the medium without added salts, most of the derivatives show no decrease or only a minor decrease in antifungal activity, while in SMF+, the medium with added salts, there is a significant decrease in antifungal activity for several Rs-AFP2 isoforms.

A value given as a limit tells only on which side of the number the result lay.

Regarding “yRs-AFP2/A31W (QKLCQRPSGTWSGVCGNNNACKNQCIRLEKWRHGSCNYVFPAHKCICYFPC; listed as Raphanus sativus)”, the “RELATIVE SPECIFIC ACTIVITY (%) IN MEDIUM SMF+” value is recorded as under 5%, the “RELATIVE SPECIFIC ACTIVITY (%) IN MEDIUM SMF−” value is reported as 15%, the “IC50 SMF+” value is recorded as over 100 and the “IC50 SMF−” value was 30.0.
For “yRs-AFP2/A42R (QKLCQRPSGTWSGVCGNNNACKNQCIRLEKARHGSCNYVFPRHKCICYFPC; listed as Raphanus sativus)”, the “RELATIVE SPECIFIC ACTIVITY (%) IN MEDIUM SMF+” value is 26%, the “RELATIVE SPECIFIC ACTIVITY (%) IN MEDIUM SMF−” value is recorded as 44%, the “IC50 SMF+” value amounted to 18.0 and the “IC50 SMF−” value was 4.2.
As for “yRs-AFP2/F40M (QKLCQRPSGTWSGVCGNNNACKNQCIRLEKARHGSCNYVMPAHKCICYFPC; listed as Raphanus sativus)”, the “RELATIVE SPECIFIC ACTIVITY (%) IN MEDIUM SMF+” value is 23%, the “RELATIVE SPECIFIC ACTIVITY (%) IN MEDIUM SMF−” value amounted to 30%, the “IC50 SMF+” value amounted to 54.0 and the “IC50 SMF−” value is listed as 16.0.
“yRs-AFP2/F49R (QKLCQRPSGTWSGVCGNNNACKNQCIRLEKARHGSCNYVFPAHKCICYRPC; listed as Raphanus sativus)”: the “RELATIVE SPECIFIC ACTIVITY (%) IN MEDIUM SMF+” value came to 22%, the “RELATIVE SPECIFIC ACTIVITY (%) IN MEDIUM SMF−” value is listed as 18%, the “IC50 SMF+” value is listed as 23.0 and the “IC50 SMF−” value turned out to be 22.0.
Turning to “yRs-AFP2/G16M (QKLCQRPSGTWSGVCMNNNACKNQCIRLEKARHGSCNYVFPAHKCICYFPC; listed as Raphanus sativus)”, the “RELATIVE SPECIFIC ACTIVITY (%) IN MEDIUM SMF+” value came to 114%, the “RELATIVE SPECIFIC ACTIVITY (%) IN MEDIUM SMF−” value was found to be 151%, the “IC50 SMF+” value was found to be 5.0 and the “IC50 SMF−” value came to 2.2. The “effect of substitution on antifungal activity in SMF+, in words” value is “increased antifungal activity”; the “effect of substitution on antifungal activity in SMF−, in words” value is “little effect on the antifungal activity”; the “relative specific antifungal activity (1/IC50), FIG. 6, in words” value was “enhanced activity”. For the setting “Table 1 tests”, the “antifungal activity compared with yRs-AFP2 in high salt (SMF+), in words” value is recorded as “not so significantly different in high salt” and the “antifungal activity compared with yRs-AFP2 in low salt (SMF−), in words” value is on record as “increased activity in low salt”.
Take “yRs-AFP2/H33A (QKLCQRPSGTWSGVCGNNNACKNQCIRLEKARAGSCNYVFPAHKCICYFPC; listed as Raphanus sativus)”: the “IC50 SMF+” value is given as over 100 and the “IC50 SMF−” value is listed as 32.0.
In the case of “yRs-AFP2/I26R (QKLCQRPSGTWSGVCGNNNACKNQCRRLEKARHGSCNYVFPAHKCICYFPC; listed as Raphanus sativus)”, the “RELATIVE SPECIFIC ACTIVITY (%) IN MEDIUM SMF+” value came to 82%, the “RELATIVE SPECIFIC ACTIVITY (%) IN MEDIUM SMF−” value worked out at 76%, the “IC50 SMF+” value amounted to 9.6 and the “IC50 SMF−” value worked out at 7.2.
As for “yRs-AFP2/I46R (QKLCQRPSGTWSGVCGNNNACKNQCIRLEKARHGSCNYVFPAHKCRCYFPC; listed as Raphanus sativus)”, the “RELATIVE SPECIFIC ACTIVITY (%) IN MEDIUM SMF−” value came out at 22%, the “IC50 SMF+” value is listed as over 40 and the “IC50 SMF−” value came out at 12.0.
For “yRs-AFP2/K44Q (QKLCQRPSGTWSGVCGNNNACKNQCIRLEKARHGSCNYVFPAHQCICYFPC; listed as Raphanus sativus)”, the “RELATIVE SPECIFIC ACTIVITY (%) IN MEDIUM SMF+” value amounted to 114% and the “RELATIVE SPECIFIC ACTIVITY (%) IN MEDIUM SMF−” value is 100%.
For the substance “yRs-AFP2/L28R (QKLCQRPSGTWSGVCGNNNACKNQCIRREKARHGSCNYVFPAHKCICYFPC; listed as Raphanus sativus)”, the “RELATIVE SPECIFIC ACTIVITY (%) IN MEDIUM SMF−” value was 39%, the “IC50 SMF+” value is listed as over 100 and the “IC50 SMF−” value was 6.4.
For the substance “yRs-AFP2/N37R (QKLCQRPSGTWSGVCGNNNACKNQCIRLEKARHGSCRYVFPAHKCICYFPC; listed as Raphanus sativus)”, the “RELATIVE SPECIFIC ACTIVITY (%) IN MEDIUM SMF+” value is listed as 80%, the “RELATIVE SPECIFIC ACTIVITY (%) IN MEDIUM SMF−” value was 100%, the “IC50 SMF+” value stood at 7.0 and the “IC50 SMF−” value amounted to 2.8.
As for “yRs-AFP2/P7-: yeast-expressed Rs-AFP2 isoform with proline deletion at position 7 (QKLCQRSGTWSGVCGNNNACKNQCIRLEKARHGSCNYVFPAHKCICYFPC; listed as Raphanus sativus)”, the “RELATIVE SPECIFIC ACTIVITY (%) IN MEDIUM SMF+” value is listed as 17% and the “RELATIVE SPECIFIC ACTIVITY (%) IN MEDIUM SMF−” value is given as 8%.
In the case of “yRs-AFP2/P7R: yeast-expressed Rs-AFP2 isoform, P7 replaced by arginine (QKLCQRRSGTWSGVCGNNNACKNQCIRLEKARHGSCNYVFPAHKCICYFPC; listed as Raphanus sativus)”, the “RELATIVE SPECIFIC ACTIVITY (%) IN MEDIUM SMF+” value stood at 84%, the “RELATIVE SPECIFIC ACTIVITY (%) IN MEDIUM SMF−” value was 33%, the “IC50 SMF+” value is on record as 8.8 and the “IC50 SMF−” value came out at 6.8.
On to “yRs-AFP2/Q5M: yeast-expressed Rs-AFP2 isoform, position 5 glutamine to methionine (QKLCMRPSGTWSGVCGNNNACKNQCIRLEKARHGSCNYVFPAHKCICYFPC; listed as Raphanus sativus)”, for which the “RELATIVE SPECIFIC ACTIVITY (%) IN MEDIUM SMF+” value turned out to be 100%, the “RELATIVE SPECIFIC ACTIVITY (%) IN MEDIUM SMF−” value is listed as 100%, the “IC50 SMF+” value worked out at 5.4 and the “IC50 SMF−” value turned out to be 4.1. For the same substance, the “effect of substitution on antifungal activity in SMF+, in words” value is “increased antifungal activity”; the “effect of substitution on antifungal activity in SMF−, in words” value is reported as “little effect on the antifungal activity”; the “relative specific antifungal activity (1/IC50), FIG. 6, in words” value is given as “enhanced activity”. In addition, the “antifungal activity compared with yRs-AFP2, in words” value (Table 1 tests, SMF− and SMF+) was “maintain their antifungal activity”.
With “yRs-AFP2/S12R (QKLCQRPSGTWRGVCGNNNACKNQCIRLEKARHGSCNYVFPAHKCICYFPC; listed as Raphanus sativus)”, the “RELATIVE SPECIFIC ACTIVITY (%) IN MEDIUM SMF+” value is given as 31%, the “RELATIVE SPECIFIC ACTIVITY (%) IN MEDIUM SMF−” value is listed as 67%, the “IC50 SMF+” value worked out at 20.0 and the “IC50 SMF−” value worked out at 3.5.
With “yRs-AFP2/T10G (QKLCQRPSGGWSGVCGNNNACKNQCIRLEKARHGSCNYVFPAHKCICYFPC; listed as Raphanus sativus)”, the “RELATIVE SPECIFIC ACTIVITY (%) IN MEDIUM SMF+” value was under 16%, the “RELATIVE SPECIFIC ACTIVITY (%) IN MEDIUM SMF−” value turned out to be 30%, the “IC50 SMF+” value is given as over 100 and the “IC50 SMF−” value is reported as 11.0.
In the case of “yRs-AFP2/W11S (QKLCQRPSGTSSGVCGNNNACKNQCIRLEKARHGSCNYVFPAHKCICYFPC; listed as Raphanus sativus)”, the “IC50 SMF+” value was over 100 and the “IC50 SMF−” value came to 16.0.
Take “yRs-AFP2/Y38G (QKLCQRPSGTWSGVCGNNNACKNQCIRLEKARHGSCNGVFPAHKCICYFPC; listed as Raphanus sativus)”: the “RELATIVE SPECIFIC ACTIVITY (%) IN MEDIUM SMF+” value is given as under 4%, the “RELATIVE SPECIFIC ACTIVITY (%) IN MEDIUM SMF−” value was 30%, the “IC50 SMF+” value was over 200 and the “IC50 SMF−” value is recorded as 42.0.
